Results as given in ChEMBL document CHEMBL1129008, “Novel 1, 2, 4-oxadiazoles as potent and selective histamine H3 receptor antagonists” (Bioorg Med Chem Lett, 1996).

Assays:
Histamine H3 receptor = Histamine H3 receptor (Rattus norvegicus, UniProt Q9QYN8); assay: Binding affinity against H3 receptor in rat cerebral cortex membranes was evaluated using [3H]N-methyl-histamine as radioligand; format: cell membranes, Membrane
[1] = target: Histamine H3 receptor (Cavia porcellus) (UniProt Q9JI35); assay: Antagonistic activity at H3 receptor was assessed on guinea-pig longitudinal muscle strips subjected to electrical field stimulation; format: functional
[2] = target: Histamine H1 receptor (Cavia porcellus) (UniProt P31389); assay: Antagonistic activity against H1 receptor was determined in histamine induced contractions of guinea pig isolated whole ileum; format: functional, tissue-based
[3] = target: Histamine H2 receptor (Cavia porcellus) (UniProt P47747); assay: Antagonistic activity at H2 receptor was assessed against histamine-induced tachycardia in guinea pig isolated atria; format: functional
Rattus norvegicus [4] = assay: Compound was tested in vivo for (R)-alpha- methyl-histamine induced dipsogenicity in rats, upon peroral administration; format: functional; conditions: po
Rattus norvegicus [5] = assay: Antagonism of ex vivo binding to rat cortex/hippocampus was determined using [3H]-N-alpha-Methylhistamine, after peroral administration; format: functional; conditions: po
Rattus norvegicus [6] = assay: Compound was tested in vivo for (R)-alpha- methyl-histamine induced dipsogenicity in rats, upon subcutaneous administration; format: functional; conditions: sc
Rattus norvegicus [7] = assay: Antagonism of ex vivo binding to rat cortex/hippocampus was determined using [3H]-N-alpha-Methylhistamine, after subcutaneous administration; format: functional; conditions: sc

Chain of Histamine H3 receptor (Q9QYN8 whole entry): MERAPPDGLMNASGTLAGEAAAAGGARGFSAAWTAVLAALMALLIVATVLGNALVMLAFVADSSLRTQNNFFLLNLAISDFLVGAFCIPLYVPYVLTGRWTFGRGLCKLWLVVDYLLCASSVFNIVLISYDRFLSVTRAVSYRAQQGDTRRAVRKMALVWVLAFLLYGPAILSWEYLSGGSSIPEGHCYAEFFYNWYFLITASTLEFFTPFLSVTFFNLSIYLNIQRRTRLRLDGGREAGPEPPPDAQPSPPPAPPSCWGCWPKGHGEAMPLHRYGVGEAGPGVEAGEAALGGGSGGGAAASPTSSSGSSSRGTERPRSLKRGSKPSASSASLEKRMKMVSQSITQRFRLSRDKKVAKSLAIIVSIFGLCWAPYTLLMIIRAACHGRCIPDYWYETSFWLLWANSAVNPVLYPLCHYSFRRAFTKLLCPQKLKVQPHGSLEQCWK
Chain of Histamine H2 receptor (Cavia porcellus) (P47747 whole entry): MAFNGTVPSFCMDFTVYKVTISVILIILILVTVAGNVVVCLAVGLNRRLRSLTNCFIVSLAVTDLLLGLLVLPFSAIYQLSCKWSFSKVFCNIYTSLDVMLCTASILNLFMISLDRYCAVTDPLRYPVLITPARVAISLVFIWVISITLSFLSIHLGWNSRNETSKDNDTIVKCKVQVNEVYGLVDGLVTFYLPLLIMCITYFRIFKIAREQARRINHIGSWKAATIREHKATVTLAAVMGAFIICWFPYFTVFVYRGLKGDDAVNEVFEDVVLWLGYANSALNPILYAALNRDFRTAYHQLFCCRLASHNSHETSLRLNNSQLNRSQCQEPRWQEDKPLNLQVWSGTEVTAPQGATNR
Chain of Histamine H3 receptor (Cavia porcellus) (Q9JI35 whole entry): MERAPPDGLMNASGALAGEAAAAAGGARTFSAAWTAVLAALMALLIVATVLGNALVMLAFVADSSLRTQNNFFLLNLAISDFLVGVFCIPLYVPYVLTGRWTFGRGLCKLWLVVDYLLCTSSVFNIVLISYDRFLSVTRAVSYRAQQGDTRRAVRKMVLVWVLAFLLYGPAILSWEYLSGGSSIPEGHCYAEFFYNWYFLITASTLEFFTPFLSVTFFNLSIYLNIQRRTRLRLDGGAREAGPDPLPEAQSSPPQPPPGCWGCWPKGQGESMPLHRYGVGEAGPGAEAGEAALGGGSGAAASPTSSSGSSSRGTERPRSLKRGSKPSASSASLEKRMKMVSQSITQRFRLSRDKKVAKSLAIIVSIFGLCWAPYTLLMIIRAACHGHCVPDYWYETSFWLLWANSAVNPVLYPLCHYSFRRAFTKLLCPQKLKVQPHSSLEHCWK
Chain of Histamine H1 receptor (Cavia porcellus) (P31389 whole entry): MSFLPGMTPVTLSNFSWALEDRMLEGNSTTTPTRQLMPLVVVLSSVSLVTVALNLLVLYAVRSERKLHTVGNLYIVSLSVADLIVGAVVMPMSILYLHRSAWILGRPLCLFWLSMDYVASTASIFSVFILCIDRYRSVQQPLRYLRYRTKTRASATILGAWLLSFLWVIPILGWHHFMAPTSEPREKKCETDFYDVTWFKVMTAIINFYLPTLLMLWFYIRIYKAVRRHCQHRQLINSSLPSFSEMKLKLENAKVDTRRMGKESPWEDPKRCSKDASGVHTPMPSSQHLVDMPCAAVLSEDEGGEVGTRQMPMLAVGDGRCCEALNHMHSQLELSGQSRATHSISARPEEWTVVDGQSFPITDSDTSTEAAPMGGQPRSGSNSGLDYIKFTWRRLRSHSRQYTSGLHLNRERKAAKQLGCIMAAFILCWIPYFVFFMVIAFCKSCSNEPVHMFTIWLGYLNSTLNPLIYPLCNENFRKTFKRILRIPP

Row | SMILES | Ki (Histamine H3 receptor) [nM] | pKB [1] | also measured
1 | CSc1ccc(Cc2noc(CCc3c[nH]cn3)n2)cc1 | 25.1 | – | –
2 | Clc1ccc(Cc2noc(CCCc3cnc[nH]3)n2)cc1 | 25.1 | – | –
3 | Clc1ccc(Cc2csc(CCc3c[nH]cn3)n2)cc1 | 200 | 7.3 | –
4 | CS(=O)(=O)c1ccc(Cc2noc(CCc3c[nH]cn3)n2)cc1 | 316 | – | –
5 | C[S+]([O-])c1ccc(Cc2noc(CCc3c[nH]cn3)n2)cc1 (stereo not given) | 2510 | – | –
6 | Ic1ccc(Cc2noc(CCc3c[nH]cn3)n2)cc1 | 6.31 | 7.1 | –
7 | Clc1ccc(Cc2n[nH]c(CCc3c[nH]cn3)n2)cc1 | 200 | 5.7 | –
8 | Clc1ccc(CCc2noc(Cc3c[nH]cn3)n2)cc1 | 251 | – | –
9 | N=C(NCc1ccc(Cl)cc1)SCCCc1c[nH]cn1 [CLOBENPROPIT] | – | 9.9 | pKB [2]: < 6; pKB [3]: < 6; ED50 (Rattus norvegicus [4]): 2.4 mg/kg; ED50 (Rattus norvegicus [5]): > 30 mg/kg; ED50 (Rattus norvegicus [6]): 1.3 mg/kg; ED50 (Rattus norvegicus [7]): 10.5 mg/kg
10 | FC(F)(F)c1ccc(Cc2noc(CCc3c[nH]cn3)n2)cc1 | 7.94 | 8.3 | –
11 | Clc1ccc(CCc2noc(CCc3c[nH]cn3)n2)cc1 | 20 | 7.7 | pKB [2]: < 5; pKB [3]: < 5
12 | Clc1ccc(Cc2noc(CCc3c[nH]cn3)n2)cc1Cl | 3.16 | 8 | –
13 | Clc1ccc(Cc2nc(CCc3c[nH]cn3)no2)cc1 | 20 | 7 | pKB [3]: 5.6
14 | Clc1ccc(Cc2noc(CCCc3c[nH]cn3)n2)cc1 | – | 6.8 | pKB [2]: < 5; pKB [3]: < 5
15 | Fc1ccc(Cc2noc(CCc3c[nH]cn3)n2)cc1 | 10 | 8.4 | –
16 | Clc1ccc(Cc2noc(Cc3c[nH]cn3)n2)cc1 | 25.1 | 7.2 | –
17 | Cn1nc(CCc2c[nH]cn2)nc1Cc1ccc(Cl)cc1 | 126 | 5.8 | –
18 | c1ccc(-c2ccc(Cc3noc(CCc4c[nH]cn4)n3)cc2)cc1 | 63.1 | 6.6 | –
19 | Clc1ccc(Cc2nnc(CCc3c[nH]cn3)s2)cc1 | 100 | 7 | pKB [3]: 5.8
20 | Clc1ccc(Cc2noc(CCc3c[nH]cn3)n2)cc1 [GR-175737] | – | – | ED50 (Rattus norvegicus [5]): 1.2 mg/kg; ED50 (Rattus norvegicus [6]): 1 mg/kg; ED50 (Rattus norvegicus [7]): 1.4 mg/kg
21 | CS(=O)(=O)Nc1ccc(Cc2noc(CCc3c[nH]cn3)n2)cc1 | 1260 | – | –
22 | Clc1ccc(Cc2n[nH]c(CCCc3c[nH]cn3)n2)cc1 | 12.6 | 7.4 | pKB [2]: < 5; pKB [3]: < 5
23 | COc1ccc(Cc2noc(CCc3c[nH]cn3)n2)cc1 | 39.8 | 6.5 | –
24 | S=C(NC1CCCCC1)N1CCC(c2cnc[nH]2)CC1 [THIOPERAMIDE] | – | 8.3 | pKB [2]: < 5; pKB [3]: < 5; ED50 (Rattus norvegicus [4]): 0.8 mg/kg; ED50 (Rattus norvegicus [5]): 6 mg/kg; ED50 (Rattus norvegicus [6]): 0.8 mg/kg; ED50 (Rattus norvegicus [7]): 5.1 mg/kg
